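Interpolation was linear, between the two tested concentrations surrounding the appropriate level; five concentrations were tested over 48 hours in 96-well plates. TGI: total growth inhibition.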
How the values were obtained:
Experiment in all cases: NCI anticancer screen, dose series, 48 h
786-0 renal = system: 786-0 renal
A498 renal = system: A498 renal
A549 NSCLC = system: A549 NSCLC
ACHN renal = system: ACHN renal
BT-549 breast = system: BT-549 breast
CAKI-1 renal = system: CAKI-1 renal
CCRF-CEM leukemia = system: CCRF-CEM leukemia
COLO 205 colon = system: COLO 205 colon
DU-145 prostate = system: DU-145 prostate
EKVX NSCLC = system: EKVX NSCLC
HCC-2998 colon = system: HCC-2998 colon
HCT-116 colon = system: HCT-116 colon
HCT-15 colon = system: HCT-15 colon
HOP-62 NSCLC = system: HOP-62 NSCLC
HOP-92 NSCLC = system: HOP-92 NSCLC
HS 578T breast = system: HS 578T breast
HT29 colon = system: HT29 colon
K-562 leukemia = system: K-562 leukemia
KM12 colon = system: KM12 colon
LOX IMVI melanoma = system: LOX IMVI melanoma
M14 melanoma = system: M14 melanoma
MALME-3M melanoma = system: MALME-3M melanoma
MCF7 breast = system: MCF7 breast
MDA-MB-231 breast = system: MDA-MB-231 breast
MDA-MB-435 = system: MDA-MB-435
MDA-N = system: MDA-N
MOLT-4 leukemia = system: MOLT-4 leukemia
NCI-H23 lung = system: NCI-H23 lung
NCI-H460 lung = system: NCI-H460 lung
NCI-H522 lung = system: NCI-H522 lung
NCI/ADR-RES ovarian = system: NCI/ADR-RES ovarian
OVCAR-3 ovarian = system: OVCAR-3 ovarian
OVCAR-4 ovarian = system: OVCAR-4 ovarian
OVCAR-5 ovarian = system: OVCAR-5 ovarian
OVCAR-8 ovarian = system: OVCAR-8 ovarian
PC-3 prostate = system: PC-3 prostate
RPMI-8226 leukemia = system: RPMI-8226 leukemia
RXF 393 renal = system: RXF 393 renal
SF-268 CNS = system: SF-268 CNS
SF-295 CNS = system: SF-295 CNS
SK-MEL-2 melanoma = system: SK-MEL-2 melanoma
SK-MEL-5 melanoma = system: SK-MEL-5 melanoma
SK-OV-3 ovarian = system: SK-OV-3 ovarian
SN12C renal = system: SN12C renal
SNB-19 CNS = system: SNB-19 CNS
SNB-75 CNS = system: SNB-75 CNS
SR leukemia = system: SR leukemia
T-47D breast = system: T-47D breast
TK-10 renal = system: TK-10 renal
U251 CNS = system: U251 CNS
UACC-257 melanoma = system: UACC-257 melanoma
UACC-62 melanoma = system: UACC-62 melanoma
UO-31 renal = system: UO-31 renal

Measured: TGI

Clc1ccc(NCc2nnc(CCCCCCCCc3nnc(CNc4ccc(Cl)cc4)o3)o2)cc1
> 100 µM: 786-0 renal | A498 renal | A549 NSCLC | ACHN renal | BT-549 breast | CAKI-1 renal | CCRF-CEM leukemia | COLO 205 colon | DU-145 prostate | EKVX NSCLC | HCC-2998 colon | HCT-116 colon | HCT-15 colon | HOP-62 NSCLC | HOP-92 NSCLC | HS 578T breast | HT29 colon | K-562 leukemia | KM12 colon | LOX IMVI melanoma | M14 melanoma | MALME-3M melanoma | MCF7 breast | MDA-MB-231 breast | MDA-MB-435 | MDA-N | MOLT-4 leukemia | NCI-H23 lung | NCI-H460 lung | NCI-H522 lung | NCI/ADR-RES ovarian | OVCAR-3 ovarian | OVCAR-4 ovarian | OVCAR-5 ovarian | OVCAR-8 ovarian | PC-3 prostate | RPMI-8226 leukemia | RXF 393 renal | SF-268 CNS | SF-295 CNS | SK-MEL-2 melanoma | SK-MEL-5 melanoma | SK-OV-3 ovarian | SN12C renal | SNB-19 CNS | SNB-75 CNS | SR leukemia | T-47D breast | TK-10 renal | U251 CNS | UACC-257 melanoma | UACC-62 melanoma | UO-31 renal

From PubChem BioAssay (NCI)
